Test results from patent publication US8436035B2, “Organic compounds” (Novartis AG, priority 2006, dated 2013).
pIC50: −log10 of the molar value.

Tests used:
CYP11B1 = target: T1, CYP11B1 (Homo sapiens, UniProt P15538); experiment: in vitro CYP11B1 inhibition, steroid release from NCI-H295R cells; assay type: cell-based; conditions: for inhibition at 0.1 µM: NCI-H295R, read-out: 11B1 % I @ 100 nM
T1 construct: Thus, the NCI-H295R cells have Cyp11 B1 (steroid 11 p-hydroxylase); host or cells: NCI-H295R
T1 sequence (P15538 25-503): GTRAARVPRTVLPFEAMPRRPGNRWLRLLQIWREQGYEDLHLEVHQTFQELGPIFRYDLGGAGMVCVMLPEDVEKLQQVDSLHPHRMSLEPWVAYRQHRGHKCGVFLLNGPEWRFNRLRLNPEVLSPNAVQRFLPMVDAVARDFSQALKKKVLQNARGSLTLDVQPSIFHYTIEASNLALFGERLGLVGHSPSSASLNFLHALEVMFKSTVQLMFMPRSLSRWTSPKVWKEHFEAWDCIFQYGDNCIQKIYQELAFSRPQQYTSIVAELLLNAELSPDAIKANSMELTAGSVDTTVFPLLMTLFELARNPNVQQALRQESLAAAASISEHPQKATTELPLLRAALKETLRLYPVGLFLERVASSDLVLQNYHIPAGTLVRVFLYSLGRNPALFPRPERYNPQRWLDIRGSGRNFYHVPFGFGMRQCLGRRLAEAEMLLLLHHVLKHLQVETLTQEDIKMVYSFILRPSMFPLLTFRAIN
Description: The in vitro inhibitory activities for CYP11B1 can be determined by the following assay.
The cell line NCI-H295R was originally isolated from an adrenocortical carcinoma and has been characterized in the literature through the stimulable secretion of steroid hormones and the presence of the enzymes essential for steroidogenesis. Thus, the NCI-H295R cells have Cyp11 B1 (steroid 11 p-hydroxylase). The cells show the physiological property of zonally undifferentiated human foetal adrenocortical cells which, however, have the capacity to produce the steroid hormones which are formed in the three, phenotypically distinguishable zones in the adult adrenal cortex.
The NCI-H295R cells (American Type Culture Collection, ATCC, Rockville, Md., USA) are grown in Dulbeoco's Modified Eagle'Ham F-12 Medium (DME/F12), which has been I supplemented with Ulroser SF Serum (Soprachem, Cergy-Saint-Christophe, France), insulin, transferrin, selenite (I-T-S, Becton Dickinson Biosciences, Franklin lakes, NJ, USA) and antibiotics in 75 cm^2 cell culture vessels at 37° C. and in a 95% air-5% carbon dioxide atmosphere. The cells are subsequently transferred for colony formation into a 24-well incubation vessel. They are cultivated there in DME/F12 medium, which is now supplemented with 0.1% bovine serum instead of Ultroser SF for 24 hours. The experiment is initiated by cultivating the cells in DME/F12 medium which is supplemented with 0.1% bovine serum albumin and test compound, in the presence or absence of cell stimulants, for 72 hours. The test substance is added in a concentration range from 0.2 nanomolar to […]. Cell stimulants which can be used are angiotensin 11 ([…] or 100 nanomolar), potassium ions (16 millimolar), forskolin (10 micromolar) or a combination of two stimulants.
The excretion of aldosterone, cortisol, corticosterone and estradiol/estrone into the culture medium can be detected and quantified by commercially available, specific monoclonal antibodies in radioimmunoassays in accordance with the manufacturer's instructions.
Inhibition of the release of certain steroids can be used as a measure of the respective enzyme inhibition by the added test compounds. The dose-dependent inhibition of enzymic activity by a compound is calculated by means of an inhibition plot which is characterized by an IC50.
The IC50 values for active test compounds are ascertained by a […] in order to construct inhibition plots without data weighting. The inhibition plot is calculated by fting a 4-parameter logistic function to the raw data points using the least squares method. The equation of the 4-parameter logistic function is calculated as follows: Y=(d−a)/((1+(x/c)b))+a I where: a=minimum data level b=gradient I c=ICED, d=maximum data level x=inhibitor concentration.

[1] = target: T2, aldosterone synthase (CYP11B2) (Homo sapiens, UniProt P19099); experiment: in vitro aldosterone synthase inhibition, aldosterone production in Ang II-stimulated NCI-H295R cells; assay type: cell-based; conditions: read-out: AS IC50
T2 construct: host or cells: NCI-H295R
T2 sequence (P19099 25-503): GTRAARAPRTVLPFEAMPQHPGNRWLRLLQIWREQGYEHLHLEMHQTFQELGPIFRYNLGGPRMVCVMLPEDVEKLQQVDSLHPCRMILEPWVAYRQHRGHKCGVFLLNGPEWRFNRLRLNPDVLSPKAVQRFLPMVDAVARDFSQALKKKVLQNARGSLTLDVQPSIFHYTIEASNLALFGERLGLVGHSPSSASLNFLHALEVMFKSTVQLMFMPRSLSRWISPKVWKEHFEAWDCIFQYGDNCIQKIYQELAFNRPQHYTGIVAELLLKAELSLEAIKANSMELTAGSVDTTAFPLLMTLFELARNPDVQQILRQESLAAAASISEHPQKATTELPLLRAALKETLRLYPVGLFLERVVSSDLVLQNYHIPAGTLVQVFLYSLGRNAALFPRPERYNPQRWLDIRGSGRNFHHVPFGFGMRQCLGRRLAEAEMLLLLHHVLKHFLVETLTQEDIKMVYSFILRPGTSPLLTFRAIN
Description: In particular, the aldosterone synthase inhibitory activities in vitro can be determined by the following assay.
Human adrenocortical carcinoma NCI-H295R cell line is obtained from American Type Culture Collection (Manassas, Va.). Insulin/transferrin/selenium (ITS)-A supplement (100×), DMEM/F-12, antibiotic/antimycotic (100×), and fetal calf serum (FCS) are purchased from Gibco (Grand Island, N.Y.). Anti-mouse PVT scintillation proximity assay (SPA) beads and NBS 96-well plates are obtained from Amersham (Piscataway, N.J.) and Corning (Acton, Mass.), respectively. Solid black 96-well flat bottom plates were purchased from Costar (Corning, N.Y.). Aldosterone and angiotensin (Ang II) are purchased from Sigma (St. Louis, Mo.). D-[1,2,6,7-^3H(N)]aldosterone was acquired from PerkinElmer (Boston, Mass.). Nu-serum was a product of BD Biosciences (Franklin Lakes, N.J.).
For in vitro measurement of aldosterone activity, human adrenocortical carcinoma NCI-H295R cells are seeded in NBS 96-well plates at a density of 25,000 cells/well in 100 μl of a growth medium containing DMEM/F12 supplemented with 10% FCS, 2.5% Nu-serum, 1 μg ITS/ml, and 1× antibiotic/antimycotic. The medium is changed after culturing for 3 days at 37° C. under an atmosphere of 5% CO2/95% air. On the following day, cells are rinsed with 100 μl of DMEM/F12 and incubated with 100 μl of treatment medium containing 1 μM Ang II and a compound at different concentrations in quadruplicate wells at 37° C. for 24 hr. At the end of incubation, 50 μl of medium is withdrawn from each well for measurement of aldosterone production by an RIA using mouse anti-aldosterone monoclonal antibodies.
Measurement of aldosterone activity can also be performed using a 96-well plate format. Each test sample is incubated with 0.02 μCi of D-[1,2,6,7-^3H(N)]aldosterone and 0.3 μg of anti-aldosterone antibody in phosphate-buffered saline (PBS) containing 0.1% Triton X-100, 0.1% bovine serum albumin, and 12% glycerol in a total volume of 200 μl at room temperature for 1 hr. Anti-mouse PVT SPA beads (50 μl) are then added to each well and incubated overnight at room temperature prior to counting in a Microbeta plate counter. The amount of aldosterone in each sample is calculated by comparing with a standard curve generated using known quantities of the hormone.

| Structure (SMILES) | 11B1 % I @ 100 nM (CYP11B1) | pIC50 [1] | inhibition at 0.1 µM (CYP11B1) |
| --- | --- | --- | --- |
| COC(=O)c1cncn1[C@H]1c2ccccc2[C@@H](O)CC1(C)C (relative stereo) [Compound 11, 3-(cis-4-Hydroxy-2,2-dimethyl-1,2,3,4-tetrahydro-naphthalen-r-1-yl)-3H-imidazole-4-carboxylic acid methyl ester] | 100% | 7.23 | – |
| COC(=O)c1cncn1[C@H]1c2ccccc2[C@@H](O)CC1(C)C (relative stereo) [Compound 12, 3-(cis-4-Hydroxy-2,2-dimethyl-1,2,3,4-tetrahydro-naphthalen-r-1-yl)-3H-imidazole-4-carboxylic acid methyl ester] | – | 7.85 | – |
| CC(C)OC(=O)c1cncn1C1CCCc2ccccc21 (single isomer, unassigned) [Compound 1, 3-(1,2,3,4-Tetrahydro-naphthalen-1-yl)-3H-imidazole-4-carboxylic acid isopropyl ester] | – | 7.36 | 99% |
| CC(C)OC(=O)c1cncn1C1CCCc2ccc(C(=O)N3CCCC3)cc21 (single isomer, unassigned) [Compound 3, 3-[7-(Pyrrolidine-1-carbonyl)-1,2,3,4-tetrahydro-naphthalen-1-yl]-3H-imidazole-4-carboxylic acid isopropyl ester] | – | 6.67 | 87% |
| CCc1cncn1C1CCC(C)(C)c2ccccc21 (single isomer, unassigned) [Compound 8, 1-(4,4-Dimethyl-1,2,3,4-tetrahydro-naphthalen-1-yl)-5-ethyl-1H-imidazole] | – | 7.46 | 100% |
| CCc1cncn1C1CCC(C)(C)c2ccccc21 (single isomer, unassigned) [Compound 9, 1-(4,4-Dimethyl-1,2,3,4-tetrahydro-naphthalen-1-yl)-5-ethyl-1H-imidazole] | 100% | 8.22 | – |
| COC(=O)c1cncn1C1c2ccccc2C(=O)CC1(C)C (single isomer, unassigned) [Compound 10, 3-(2,2-Dimethyl-4-oxo-1,2,3,4-tetrahydro-naphthalen-1-yl)-3H-imidazole-4-carboxylic acid methyl ester] | – | 7.57 | 99% |
| CC(C)OC(=O)c1cncn1C1CCOc2ccccc21 (single isomer, unassigned) [Compound 15, 3-Chroman-4-yl-3H-imidazole-4-carboxylic acid isopropyl ester] | – | 6.99 | 65% |
| CC(C)OC(=O)c1cncn1C1CCOc2ccccc21 (single isomer, unassigned) [Compound 16, 3-Chroman-4-yl-3H-imidazole-4-carboxylic acid isopropyl ester] | – | 6.82 | – |
| CCC(=O)Oc1cncn1C1CCCc2ccccc21 (stereo not drawn) [Compound 2, Propionic acid 3-(1,2,3,4-tetrahydro-naphthalen-1-yl)-3H-imidazol-4-yl ester] | – | 7.68 | – |
| CC(=O)Nc1ccc2c(c1)CCCC2n1cncc1C(=O)OC(C)C (stereo not drawn) [Compound 4, 3-(6-Acetylamino-1,2,3,4-tetrahydro-naphthalen-1-yl)-3H-imidazole-4-carboxylic acid isopropyl ester] | – | 7.07 | – |
| CC(C)OC(=O)c1cncn1C1CCCc2ccc(N(C)S(C)(=O)=O)cc21 (stereo not drawn) [Compound 5, 3-(7-Methanesulfonyl-methyl-amino-1,2,3,4-tetrahydro-naphthalen-1-yl)-3H-imidazole-4-carboxylic acid isopropyl ester] | – | 6.45 | – |
| CC(C)OC(=O)c1cncn1C1CCCc2ccc(C#N)cc21 (stereo not drawn) [Compound 6, 3-(7-Cyano-1,2,3,4-tetrahydro-naphthalen-1-yl)-3H-imidazole-4-carboxylic acid isopropyl ester] | – | 6.71 | – |
| CC(C)OC(=O)c1cncn1C1CCCc2cc(C3CC3)ccc21 (stereo not drawn) [Compound 7, 3-(6-Cyclopropyl-1,2,3,4-tetrahydro-naphthalen-1-yl)-3H-imidazole-4-carboxylic acid isopropyl ester] | – | 6.57 | – |
| COC(=O)c1cncn1C1c2ccccc2C(NCc2ccccc2)CC1(C)C (stereo not drawn) [Compound 13, 3-(4-Benzylamino-2,2-dimethyl-1,2,3,4-tetrahydro-naphthalen-1yl)-3H-imidazole-4-carboxylic acid methyl ester] | – | 6.16 | 60% |
| CC1(C)CSc2ccccc2C1n1ccnc1 (stereo not drawn) [Compound 14, 1-(3,3-Dimethyl-thiochroman-4-yl)-1H-imidazole] | – | 6.90 | 92% |
| c1ccc(COc2cncn2C2CSCc3ccccc32)cc1 (stereo not drawn) [Compound 18, 5-Benzyloxy-1-isothiochroman-4-yl-1H-imidazole] | – | 6.82 | – |
| CC1(C)Cc2ccccc2C1n1cncc1C(=O)NCc1ccccc1 (stereo not drawn) [Compound 19, 3-(2,2-Dimethyl-indan-1-yl)-3H-imidazole-4-carboxylic acid benzylamide] | – | 7.77 | – |
| CC1(C)Cc2ccccc2C1n1cncc1C(=O)NCCO (stereo not drawn) [Compound 20, 3-(2,2-Dimethyl-indan-1-yl)-3H-imidazole-4-carboxylic acid (2-hydroxy-ethyl)-amide] | – | 8.22 | – |
| Cc1noc(-c2cncn2C2c3ccccc3CC2(C)C)n1 (stereo not drawn) [Compound 21, 5-[3-(2,2-Dimethyl-indan-1-yl)-3H-imidazol-4-yl]-3-methyl-[1,2,4]oxadiazole] | – | 6.89 | 98% |
